Results published in US7534800B2, “7-azaindoles as inhibitors of c-Jun N-terminal kinases for the treatment of neurodegenerative disorders” (Eisai R & D Development Co., Ltd., priority 2002, dated 2009).

Biological target: JNK3 kinase (Homo sapiens, UniProt P53779)
Experiment: JNK3 SPA assay (phosphorylation of GST-c-Jun, [γ-33P] ATP)
Type: biochemical
Conditions: 3.33 μM ATP, GST-c-Jun substrate, 30 minutes at room temperature
Method: JNK1, JNK27 JNK3—SPA Assay
A typical assay for testing the activity of compounds to inhibit JNK1, JNK2 and JNK3 enzymes is as follows: • 1. Compound is dissolved in DMSO to a convenient concentration and this is diluted in 10% DMSO to a five times concentrate of the desired starting concentration (frequently 1:100). • 2. 10 μl of 500 mM EDTA is added to alternative wells of the Opti-plate row, which will receive kinase reaction plus DMSO. This creates the negative control. • 3. For the JNK2 and JNK3 assay, compounds are prepared in six 2-fold dilutions with water and each concentration is tested in duplicate. For the JNK1 assay compounds are prepared in four 5-fold dilutions with water which are tested in triplicate. Controls are treated identically. • 4. 20 μl per well of each compound concentration is transferred to an Opti-plate, in duplicate. • 5. 30 μl (JNK2/3 SPA) or 50 μl (JNK1 SPA) of substrate solution (25 mM HEPES pH 7.5, 10 mM magnesium acetate with 3.33 μm ATP (JNK2/3) or 2 μM ATP (JNK1), approximately 7.5 kBq [γ-33P] ATP, GST-c-Jun, in water) is added to each well. • 6. 50 μl (JNK2/3 SPA) or 30 μl (JNK1 SPA) of kinase solution (JNK in 25 mM HEPES pH 7.5, 10 mM Mg Acetate) is added to each well.
• 7. The plate is incubated for 30 minutes at room temperature. • 8. 100 μl of bead/stop solution is added to each well (5 mg/ml glutathione-PVT-SPA beads, 40 µM ATP in PBS). • 9. Plates are sealed and incubated for 30 minutes at room temperature, centrifuged for 10 minutes at 2500 g and counted. • 10. The IC50 values are calculated as the concentration of the compound being tested at which the phosphorylation of c-Jun is decreased to 50% of the control value.

Sequence of JNK3 kinase (P53779 whole entry): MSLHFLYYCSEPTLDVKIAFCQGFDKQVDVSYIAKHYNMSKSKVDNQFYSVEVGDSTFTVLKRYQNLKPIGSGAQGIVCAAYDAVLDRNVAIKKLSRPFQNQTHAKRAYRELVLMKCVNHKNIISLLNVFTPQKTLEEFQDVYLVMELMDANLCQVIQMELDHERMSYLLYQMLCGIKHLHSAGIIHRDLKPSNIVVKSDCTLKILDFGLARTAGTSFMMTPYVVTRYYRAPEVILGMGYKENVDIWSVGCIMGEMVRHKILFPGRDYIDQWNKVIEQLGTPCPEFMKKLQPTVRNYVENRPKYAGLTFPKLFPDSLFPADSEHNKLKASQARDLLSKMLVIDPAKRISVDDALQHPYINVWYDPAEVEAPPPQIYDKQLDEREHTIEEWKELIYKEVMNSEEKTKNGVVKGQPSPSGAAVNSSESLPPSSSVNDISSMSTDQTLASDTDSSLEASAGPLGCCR

| SMILES | IC50 [nM] |
| --- | --- |
| O=C(NNc1ccccc1)c1c[nH]c2ncc(-c3cccc(F)c3)cc12 | 780 |
| C#CCNC(=O)c1c[nH]c2ncc(-c3cccc(F)c3)cc12 | 850 |
| C#CCNC(=O)c1c[nH]c2ncc(-c3ccc(N(C)C)cc3)cc12 | 520 |
